Data published in patent publication EP2054020B1, “COSMETIC COMPOSITION COMPRISING PURINE AND/OR A PURINE DERIVATIVE AND TAURINE” (Henkel AG & Co. KGaA, priority 2006, dated 2008).

Assays:
IGFBP3 = experiment: Differential gene expression by qRT-PCR in dermal papilla cells: IGFBP3; type: cell-based; settings: 24 h, Taurin 0,5 %, Coffein 0,025 %; for IGFBP3 Mittelwert: untreated Kontrolle = 1, spread in brackets, 4 biological replicates, >=2 or <=0,5 signifikant, >=1,5 or <=0,6 tendenziell; for Expression von IGF-BP3: result in words
From the text: (§1) Tabelle 2: Untersuchte Lösungen
Diesen Eigenschaften gegenüber steht die Expression von IGFBP-3. Dieses Genprodukt führt neben Anderen zu einer.Verschiebung des Zyklus von der Wachstums- zur Regressionsphase. Nach Applikation von Substanzen, die Effekte am biologisch aktiven Teil des Haares hervorrufen, könnte die Bestimmung der Veränderungen der Expression dieses Gens Aussagen über Haarwuchsstimulantien oder -inhibitoren liefern.
(§2) Die differentielle Genexpression wurde mittels quantitatitiver Reverse-Transkription Polymerase Kettenreaktion (qRT-PCR) bestimmt. Nach Anzucht der dermalen Papillenzellen wurden jeweils 4 biologische Replikate für 24 h mit den Lösungen gemäß Tabelle 2 inkubiert. Zur Durchführung der qRT-PCR wird zunächst mit Hilfe des RNeasy Mini Kits der Fa. Qiagen die RNA aus den dermalen Papillenzellen isoliert und mittels reverser Transkription in cDNA umgeschrieben. Bei der anschließenden PCR Reaktion, die mit Hilfe genspezifischer Primer für die jeweiligen haarrelevanten Gene durchgeführt wird und die der Amplifikation der gesuchten Genabschnitte dient, wird die Bildung der PCR-Produkte online über ein Fluoreszenzsignal detektiert. Das Fluoreszenzsignal ist dabei proportional zur Menge des gebildeten PCR-Produktes. Je stärker die Expression eines bestimmten Gens ist, desto größer ist die Menge an gebildetem PCR-Produkt und umso höher ist das Fluoreszenzsignal.
(§3) Zur Quantifizierung der Genexpression wird die unbehandelte Kontrolle gleich 1 gesetzt und die Expression der zu bestimmenden Gene darauf bezogen (x-fache Expression). Dabei werden Werte, die größer/gleich der 2-fachen Expression oder kleiner/gleich der 0,5-fachen Expression der unbehandelten Kontrolle sind als signifikant differentiell exprimiert eingestuft. Werte die größer/gleich der 1,5-fachen Expression oder kleiner/gleich der 0,6-fachen Expression der unbehandelten Kontrolle sind, werden als tendenziell differentiell exprimiert eingestuft. Die Ergebnisse sind in Tabelle 4 zusammengefasst.

HGF [1] = experiment: Differential gene expression by qRT-PCR in dermal papilla cells: HGF; type: cell-based; settings: 24 h, Taurin 0,5 %, Coffein 0,025 %; for HGF Mittelwert: untreated Kontrolle = 1, spread in brackets, 4 biological replicates, >=2 or <=0,5 signifikant, >=1,5 or <=0,6 tendenziell; for Expression von HGF: result in words
From the text: as §1
(§4) Hepatocyte Growth Factor (HGF) und Keratinocyte Growth Factor (KGF) sind wichtige Wachstumsfaktoren, die von den dermalen Papillenzellen synthetisiert werden. Im Speziellen stimuliert HGF das Follikelwachstum und KGF die Keratinozytenproliferation. Entsprechend werden HGF und KGF in der Wachstumsphase vermehrt exprimiert.
as §2, §3

HGF [2] = experiment: Growth factor release (ELISA) from reconstructed dermal papillae: HGF; type: cell-based; settings: 24 h, Taurin 0,5 %, Coffein 0,025 %; for HGF-Freisetzung Mittelwert: quadruplicates, compared with untreated Kontrolle = 100, spread in brackets; for Steigerung der HGF-Ausschüttung: increase over untreated control
From the text: (§5) Die beiden Wachstumsfaktoren Hepatocyte Growth Factor (HGF) und Keratinocyte Growth Factor (KGF) sind wichtige Regulatoren des Haarzyklus. Bei potentiell wachstumsfördemden und den vorzeitigen Haarverlust vermindernden Substanzen kann von einer Steigerung eines der ausgeschütteten Faktoren ausgegangen werden. Die Ausschüttung von HGF sowie KGF kann mit Hilfe von kommerziell erhältlichen ELISA-Kits quantifiziert werden.
(§6) Die Ergebnisse finden sich in Tabelle 5 wieder. Tabelle 5: KGF- und HGF-Freisetzung in [%] nach Behandlung rekonstruierter dermaler Papillen im Vergleich zu unbehandelten Kontrollen.

KGF [3] = experiment: Growth factor release (ELISA) from reconstructed dermal papillae: KGF; type: cell-based; settings: 24 h, Taurin 0,5 %, Coffein 0,025 %; for KGF-Freisetzung Mittelwert: quadruplicates, compared with untreated Kontrolle = 100, spread in brackets; for Steigerung der KGF Ausschüttung: increase over untreated control
From the text: as §5, §6

KGF [4] = experiment: Differential gene expression by qRT-PCR in dermal papilla cells: KGF; type: cell-based; settings: 24 h, Taurin 0,5 %, Coffein 0,025 %; for KGF Mittelwert: untreated Kontrolle = 1, spread in brackets, 4 biological replicates, >=2 or <=0,5 signifikant, >=1,5 or <=0,6 tendenziell; for Expression von KGF: result in words
From the text: as §1, §4, §2, §3

[5] = test system: kultivierte dermale Papillenzellen
From the text: Die Bestimmung der Freisetzung von Laktat-Dehydrogenase (LDH) kultivierter Zellen gibt Auskunft über die Schädigung der Zellmembran. In unbeschädigten Zellen ist LDH ausschließlich im Zytoplasma lokalisiert. Erst durch Schädigung der Zellmembran kann LDH in das umgebende Kulturmedium diffundieren. Mit Hilfe eines Substrat-gekoppelten kolorimetrischen Testsystems kann die Menge an freigesetztem LDH bestimmt werden.
Zur Bestimmung möglicher zellschädigender Nebeneffekte wurden kultivierte dermale Papillenzellen mit den in Tabelle 2 aufgeführten Lösungen kultiviert und nach Behandlung die Menge an LDH im Medium analysiert. Es wurde die Zeit bestimmt, die benötigt wird, um eine definierte Menge an Farbstoff umzusetzen. […] Hierbei gilt, dass Werte < 80 % auf mögliche zellschädigende Reaktionen hindeuten.

Structure (SMILES) | IGFBP3 Mittelwert (IGFBP3) | Expression von IGF-BP3 (IGFBP3) | HGF Mittelwert (HGF [1]) | Expression von HGF (HGF [1]) | HGF-Freisetzung Mittelwert (HGF [2]) | Steigerung der HGF-Ausschüttung (HGF [2]) | KGF-Freisetzung Mittelwert (KGF [3]) | Steigerung der KGF Ausschüttung (KGF [3]) | KGF Mittelwert (KGF [4]) | Expression von KGF (KGF [4]) | Freisetzung von LDH Mittelwert (%) [5] | zellschädigende Effekte [5]
Cn1c(=O)c2c(ncn2C)n(C)c1=O [Coffein, reference compound] | 0,44 (0,07) x-fache Expression | signifikante Deaktivierung | 1,62 (0,46) x-fache Expression | tendenzielle Aktivierung | 170 (35,8) % | 70% | 119 (9,7) % | 10% | 1,44 (0,13) x-fache Expression | tendenzielle Aktivierung |  | 
NCCS(=O)(=O)O [Taurin, 2-Aminoethansulfonsäure] | 1,41 (0,18) x-fache Expression | keinen signifikanten Änderungen | 1,03 (0,30) x-fache Expression | keinen signifikanten Änderungen | 152 (29,9) % | 52% | 110(11,5) % | 19% | 1,08 (0,12) x-fache Expression | keinen signifikanten Änderungen | 134,1% | weder nach Behandlung mit Taurin oder Coffein allein, noch mit einem Gemisch beider Verbindungen zellschädigende Effekte nachgewiesen werden können
